Assay results published in patent US10358426B2, “Fungicidal substituted 2-[2-halogenalkyl-4-(phenoxy)-phenyl]-1-[1,2,4]triazol-1-yl-ethanol compounds” (BASF Agro B.V., priority 2011, dated 2019).

Assays:
[1] = test system: Pyricularia oryzae; assay: microbe, parasite or virus in culture; type: cell-based; settings: for activity at 2 ppm: Pyricularia oryzae, read-out: growth (relative growth in % of control)
[2] = test system: Septoria tritici; assay: Preventative control of leaf blotch on wheat, inoculation seven days later (Septtr P7), greenhouse; type: in vivo
[3] = test system: Alternaria solani; assay: Preventative fungicidal control of early blight on tomatoes, inoculation seven days later (Alteso P7), greenhouse; type: in vivo; settings: tomato; for Disease (%) at 16 ppm Alteso P7: untreated control 90; for Disease (%) at 63 ppm Alteso P7: untreated control 100
[4] = test system: Septoria tritici; assay: Preventative control of leaf blotch on wheat, inoculation next day (Septtr P1), greenhouse; type: in vivo; settings: for Disease(%) at 150 ppm Septtr P1: Use Example 6, untreated control 80; for Disease (%) at 150 pm Septtr P1: 150 ppm, Use Example 9, untreated control 90
[5] = test system: Uncinula necator; assay: Control of powdery mildew on grape (Uncine P3), greenhouse; type: in vivo; settings: untreated control 100
Procedure: Preventative Control of Leaf Blotch on Wheat Caused by Septoria tritici (Septtr P7) Grape cuttings were grown in pots to the 4 to 5 leaf stage. […] Three days later the treated plants were inoculated with spores of Uncinula necator by shaking heavily infestated stock plants over the treated pots. […] Preventative Fungicidal Control of Early Blight on Tomatoes (Alternaria solani) (Alteso P7)

[6] = test system: Septoria tritici; assay: Curative control of leaf blotch on wheat (Septtr K7), greenhouse; type: in vivo; settings: untreated control 90
[7] = test system: Pyrenophora teres; type: cell-based; settings: 32 ppm; Use Example 10 M6
[8] = Use Example 6, untreated control 80
[9] = Use Example 8, untreated control 80
[10] = Use Example 11, untreated control 90

## COC(C)(Cn1cncn1)c1ccc(Oc2ccc(Cl)cc2)cc1C(F)(F)F (centres unmarked) [compound I-10, 1-[2-[4-(4-chlorophenoxy)-2-(trifluoromethyl)phenyl]-2-methoxy-propyl]-1,2,4-triazole]
[1]
  activity at 2 ppm: ≤ 4%

## CC(O)(Cn1cncn1)c1ccc(Oc2ccc(Cl)cc2)cc1C(F)(F)F (centres unmarked) [compound I-2, 2-[4-(4-chloro-phenoxy)-2-trifluoromethyl-phenyl]-1-[1,2,4]triazol-1-yl-propan-2-ol]
[1]; Use Example 6
  Growth (%) at 0.5 ppm Pyrior: 68%
[1]; Use Example 7
  Growth (%) at 0.5 ppm Pyrior: 68%
[2]; [8]
  Disease (%) at 16 ppm Septtr P7: 10%
[3]
  Disease (%) at 16 ppm Alteso P7: 15%

## OC(Cn1cncn1)c1ccc(Oc2ccc(Cl)cc2)cc1C(F)(F)F (centres unmarked) [compound I-1]
[4]
  Disease(%) at 150 ppm Septtr P1: 0%
[1]; Use Example 7
  Growth (%) at 0.5 ppm Pyrior: 47%
[2]; [9]
  Disease (%) at 16 ppm Septtr P7: 2%
[2]; [10]
  Disease (%) at 16 ppm Septtr P7: 3%
[5]
  Disease (%) at 16 ppm Uncine P3: 0%
[3]
  Disease (%) at 63 ppm Alteso P7: 3%

## CCCC(O)(Cn1cncn1)c1ccc(Oc2ccc(Cl)cc2)cc1C(F)(F)F (centres unmarked) [compound I-4]
[1]; Use Example 7
  Growth (%) at 0.5 ppm Pyrior: 19%
[2]; [9]
  Disease (%) at 16 ppm Septtr P7: 25%

## CC(O)(Cn1cncn1)c1ccc(Oc2ccc(F)cc2)cc1Cl (centres unmarked) [compound V19, reference compound]
[4]
  Disease (%) at 150 pm Septtr P1: 40%
[2]; [9]
  Disease (%) at 16 ppm Septtr P7: 60%

## CC(O)(Cn1cncn1)c1ccc(Oc2ccc(F)cc2)cc1C(F)(F)F (centres unmarked) [compound I-16]
[4]
  Disease (%) at 150 pm Septtr P1: 0%

## OC(Cn1cncn1)c1ccc(Oc2ccc(Cl)cc2)cc1Cl (centres unmarked) [compound V6, reference compound]
[4]
  Disease(%) at 150 ppm Septtr P1: 60%
[2]; [10]
  Disease (%) at 16 ppm Septtr P7: 30%
[5]
  Disease (%) at 16 ppm Uncine P3: 40%
[3]
  Disease (%) at 63 ppm Alteso P7: 40%

## CCC(O)(Cn1cncn1)c1ccc(Oc2ccc(Cl)cc2)cc1C(F)(F)F (centres unmarked) [compound I-3, 2-[4-(4-chloro-phenoxy)-2-trifluoromethyl-phenyl]-1[1,2,4]triazol-1-yl-butan-2-ol]
[1]; Use Example 7
  Growth (%) at 0.5 ppm Pyrior: 58%
[1]
  activity at 2 ppm: ≤ 4%

## COC(Cn1cncn1)c1ccc(Oc2ccc(Cl)cc2)cc1Cl (centres unmarked) [DE3801233 compound 2, reference compound]
[4]
  Disease (%) at 150 pm Septtr P1: 30%
[2]; [10]
  Disease (%) at 16 ppm Septtr P7: 90%
[6]
  Disease (%) at 16 ppm Septtr K7: 80%

## CC#CC(O)(Cn1cncn1)c1ccc(Oc2ccc(Cl)cc2)cc1C(F)(F)F (centres unmarked) [compound I-6, 2-[4-(4-chlorophenoxy)-2-(trifluoromethyl)phenyl]-1-(1,2,4-triazol-1-yl)pent-3-yn-2-ol]
[1]; Use Example 7
  Growth (%) at 0.5 ppm Pyrior: 37%
[2]; [9]
  Disease (%) at 16 ppm Septtr P7: 0%
other
  melting point: 137 °C

## CC(O)(Cn1cncn1)c1ccc(Oc2ccc(Cl)cc2)cc1Cl (centres unmarked) [compound V18, reference compound]
[1]; Use Example 6
  Growth (%) at 0.5 ppm Pyrior: 82%
[1]; Use Example 7
  Growth (%) at 0.5 ppm Pyrior: 82%
[2]; [8]
  Disease (%) at 16 ppm Septtr P7: 60%
[2]; [10]
  Disease (%) at 16 ppm Septtr P7: 67%
[3]
  Disease (%) at 16 ppm Alteso P7: 60%

## COC(Cn1cncn1)c1ccc(Oc2ccc(Cl)cc2)cc1C(F)(F)F (centres unmarked) [compound I-14]
[4]
  Disease (%) at 150 pm Septtr P1: 0%
[2]; [10]
  Disease (%) at 16 ppm Septtr P7: 15%
[6]
  Disease (%) at 16 ppm Septtr K7: 20%

## CC(C)C(O)(Cn1cncn1)c1ccc(Oc2ccc(Cl)cc2)cc1C(F)(F)F (centres unmarked) [compound I-7, 2-[4-(4-chlorophenoxy)-2-(trifluoromethyl)phenyl]-3-methyl-1-(1,2,4-triazol-1-yl)butan-2-ol]
other
  melting point: 114 °C

## OC(Cn1cncn1)c1ccc(Oc2ccc(Cl)cc2Cl)cc1C(F)(F)F (centres unmarked) [I-13]
[7]
  growth (relative growth in % of control): 1%
